Test results published in ChEMBL document CHEMBL3272202, “Synthesis and pharmacological activity of some N-alkyl-substituted 9alpha-ethyl-2'-hydroxy-5-methyl-6,7-benzomorphans” (J Med Chem, 1977).
Calls of active or inactive are those of the source. No cut-off for these calls is given here.

What was measured:
Rhesus monkey [1] = assay: Narcotic antagonist activity in morphine-dependent monkey by precipitated withdrawl test; assay type: functional, organism-based; settings: Macaca mulatta
Rhesus monkey [2] = assay: Narcotic antagonist activity in morphine-dependent monkey by single dose suppression test; assay type: functional, organism-based; settings: Macaca mulatta
Rattus norvegicus [3] = assay: Narcotic analgesic activity in rat at 30 mg/kg, sc by tail-flick test relative to control; assay type: functional
Rattus norvegicus [4] = assay: Narcotic antagonist activity in rat at 30 mg/kg, sc by tail-flick test relative to control; assay type: functional
Mus musculus [5] = assay: Narcotic analgesic activity in mouse assessed as suppression of phenylquinone-induced writhing at 30 mg/kg, sc relative to control; assay type: functional; settings: route subcutaneous
Mus musculus [6] = assay: Narcotic analgesic activity in sc dosed mouse by hot-plate test; assay type: functional
Rattus norvegicus [7] = assay: Narcotic analgesic activity in sc dosed rat by tail-flick test; assay type: functional
Rattus norvegicus [8] = assay: Narcotic antagonist activity in rat at 1 to 10 mg/kg, sc by tail-flick test; assay type: functional, organism-based
Rhesus monkey [9] = assay: Toxicity in morphine-dependent monkey assessed as morphine substitution measured during precipitated withdrawl test; assay type: organism-based, Macaca mulatta; settings: in vivo
Mus musculus [10] = assay: Narcotic analgesic activity in sc dosed mouse assessed as suppression of phenylquinone-induced writhing; assay type: functional
Rhesus monkey [11] = assay: Toxicity in morphine-dependent monkey assessed as morphine substitution measured during single dose suppression test; assay type: organism-based, Macaca mulatta; settings: in vivo
Rattus norvegicus [12] = assay: Narcotic antagonist activity in sc dosed rat by tail-flick test; assay type: functional
Mus musculus [13] = assay: Toxicity in mouse assessed as ataxia at 3 to 10 mg/kg, sc; assay type: organism-based; parameters: dose 3-10 mg/kg, route subcutaneous; settings: in vivo
Mus musculus [14] = assay: Toxicity in mouse assessed as hyperactivity at 3 to 10 mg/kg, sc; assay type: organism-based; parameters: dose 3-10 mg/kg, route subcutaneous; settings: in vivo
Mus musculus [15] = assay: Narcotic analgesic activity in mouse at 10 to 40 mg/kg, sc by Nilsen test; assay type: functional, organism-based
Mus musculus [16] = assay: Narcotic analgesic activity in mouse assessed as suppression of phenylquinone-induced writhing at 10 mg/kg, sc relative to control; assay type: functional; settings: route subcutaneous
Mus musculus [17] = assay: Narcotic analgesic activity in mouse at 20 mg/kg, sc by Nilsen test; assay type: functional, organism-based; parameters: dose 20 mg/kg
Mus musculus [18] = assay: Toxicity in mouse at 50 mg/kg, sc; assay type: organism-based; parameters: dose 50 mg/kg, route subcutaneous; settings: in vivo
Mus musculus [19] = assay: Narcotic analgesic activity in mouse at 50 mg/kg by hot-plate test; assay type: functional, organism-based; parameters: dose 50 mg/kg
Rhesus monkey [20] = assay: Toxicity in morphine-dependent monkey assessed as morphine substitution at 2.5 to 20 mg/kg measured during single dose suppression test; assay type: organism-based, Macaca mulatta; parameters: dose 2.5-20 mg/kg; settings: in vivo
Rhesus monkey [21] = assay: Toxicity in morphine-dependent monkey assessed as morphine substitution at 2.5 to 20 mg/kg measured during precipitated withdrawl test; assay type: organism-based, Macaca mulatta; parameters: dose 2.5-20 mg/kg; settings: in vivo
Mus musculus [22] = assay: Narcotic analgesic activity in mouse at 20 to 50 mg/kg, sc by hot-plate test; assay type: functional, organism-based
Rhesus monkey [23] = assay: Toxicity in morphine-dependent monkey assessed as depression of central nervous system; assay type: organism-based, Macaca mulatta; settings: in vivo
Rhesus monkey [24] = assay: Toxicity in morphine-dependent monkey assessed as convulsion; assay type: organism-based, Macaca mulatta; settings: in vivo
Rhesus monkey [25] = assay: Toxicity in morphine-dependent monkey assessed as precipitation of abstinence signs; assay type: organism-based, Macaca mulatta; settings: in vivo
Rhesus monkey [26] = assay: Toxicity in morphine-dependent monkey assessed as motor incoordination; assay type: organism-based, Macaca mulatta; settings: in vivo
Mus musculus [27] = assay: Narcotic analgesic activity in mouse at 50 mg/kg, sc by Nilsen test; assay type: functional, organism-based; parameters: dose 50 mg/kg
Mus musculus [28] = assay: Narcotic analgesic activity in mouse at 100 mg/kg, sc by hot-plate test; assay type: functional, organism-based; parameters: dose 100 mg/kg
Mus musculus [29] = assay: Narcotic analgesic activity in sc dosed mouse by Nilsen test; assay type: functional
Mus musculus [30] = assay: Toxicity in mouse at 5 to 10 mg/kg, sc; assay type: organism-based; parameters: dose 5-10 mg/kg, route subcutaneous; settings: in vivo
Rattus norvegicus [31] = assay: Narcotic antagonist activity in rat at 10 mg/kg, sc by tail-flick test; assay type: functional; parameters: scale not given: the % may be the effect or the level left
Mus musculus [32] = assay: Narcotic analgesic activity in mouse at 5 to 10 mg/kg, sc by Nilsen test; assay type: functional, organism-based
Rhesus monkey [33] = assay: Toxicity in morphine-dependent monkey assessed as depression of central nervous system in presence of naloxone; assay type: organism-based, Macaca mulatta; settings: in vivo
Rhesus monkey [34] = assay: Toxicity in morphine-dependent monkey assessed as depression of central nervous system in presence of nalorphine; assay type: organism-based, Macaca mulatta; settings: in vivo

SMILES: C=CCN1CC[C@]23c4c5ccc(O)c4O[C@H]2C(=O)CC[C@@]3(O)[C@H]1C5
- Activity (Rhesus monkey [1]): Active
- Activity (Rhesus monkey [2]): Active

SMILES: CC[C@H]1[C@H]2Cc3ccc(O)cc3[C@@]1(C)CCN2 (racemic)
- inhibition in vivo at 30 mg/kg (Rattus norvegicus [3]; route subcutaneous): 37%
- Activity (Rattus norvegicus [4]): inactive
- inhibition in vivo at 30 mg/kg (Mus musculus [5]): 45%
- ED50 (Mus musculus [6]): inactive

SMILES: CC[C@H]1[C@H]2Cc3ccc(O)cc3[C@@]1(C)CCN2C (racemic)
- ED50 (Rattus norvegicus [7]): 6.4 mg/kg
- Activity (Rattus norvegicus [8]): inactive
- Activity (Rhesus monkey [9]): Toxic
- ED50 (Mus musculus [10]): 0.2 mg/kg
- Activity (Rhesus monkey [11]): Toxic
- ED50 (Mus musculus [6]): 1.3 mg/kg

SMILES: CC[C@H]1[C@H]2Cc3ccc(O)cc3[C@@]1(C)CCN2CC (racemic)
- ED50 (Rattus norvegicus [7]): inactive
- inhibition in vivo at 30 mg/kg (Mus musculus [5]): 27%
- AD50 (Rattus norvegicus [12]): 5.5 mg/kg
- ED50 (Mus musculus [6]): 21.3 mg/kg

SMILES: CCCN1CC[C@]2(C)c3cc(O)ccc3C[C@@H]1[C@@H]2CC (racemic)
- ED50 (Rattus norvegicus [7]): inactive
- Activity (Mus musculus [13]): Toxic
- Activity (Mus musculus [14]): Toxic
- AD50 (Rattus norvegicus [12]): 0.7 mg/kg
- Activity (Mus musculus [15]): inactive
- ED50 (Mus musculus [6]): inactive
- Activity (Mus musculus [16]): 55%

SMILES: CCCCN1CC[C@]2(C)c3cc(O)ccc3C[C@@H]1[C@@H]2CC (racemic)
- Activity (Mus musculus [17]): inactive
- Activity (Mus musculus [18]): Toxic
- inhibition (Rattus norvegicus [3]): inactive
- ED50 (Mus musculus [10]): 13 mg/kg
- AD50 (Rattus norvegicus [12]): 2.38 mg/kg
- Activity (Mus musculus [19]): inactive
- ED50 (Mus musculus [6]): inactive

SMILES: CCCCCN1CC[C@]2(C)c3cc(O)ccc3C[C@@H]1[C@@H]2CC (racemic)
- ED50 (Rattus norvegicus [7]): 28.1 mg/kg
- Activity (Rattus norvegicus [4]; route subcutaneous): 39%
- ED50 (Mus musculus [10]): 1.8 mg/kg
- AD50 (Rattus norvegicus [12]): inactive
- ED50 (Mus musculus [6]): 4.2 mg/kg

SMILES: CCCCCCN1CC[C@]2(C)c3cc(O)ccc3C[C@@H]1[C@@H]2CC (racemic)
- ED50 (Rattus norvegicus [7]): 18.7 mg/kg
- Activity (Rattus norvegicus [4]): inactive
- Activity (Rhesus monkey [20]): Non-toxic
- ED50 (Mus musculus [10]): 5.7 mg/kg
- ED50 (Mus musculus [6]): 6.2 mg/kg
- Activity (Rhesus monkey [21]): Non-toxic

SMILES: CCCCCCCN1CC[C@]2(C)c3cc(O)ccc3C[C@@H]1[C@@H]2CC (racemic)
- ED50 (Rattus norvegicus [7]): 14 mg/kg
- ED50 (Mus musculus [10]): 7.3 mg/kg
- AD50 (Rattus norvegicus [12]): inactive
- ED50 (Mus musculus [6]): 9.9 mg/kg

SMILES: CCCCCCCCN1CC[C@]2(C)c3cc(O)ccc3C[C@@H]1[C@@H]2CC (racemic)
- ED50 (Rattus norvegicus [7]): inactive
- ED50 (Mus musculus [10]): 15.1 mg/kg
- AD50 (Rattus norvegicus [12]): inactive
- ED50 (Mus musculus [6]): inactive

SMILES: C=CCN1CC[C@]2(C)c3cc(O)ccc3C[C@@H]1[C@@H]2CC (racemic)
- Activity (Rhesus monkey [1]): Active
- inhibition (Rattus norvegicus [3]): inactive
- ED50 (Mus musculus [10]): 15.7 mg/kg
- Activity (Mus musculus [22]): inactive
- AD50 (Rattus norvegicus [12]): 0.6 mg/kg
- Activity (Rhesus monkey [2]): Active

SMILES: C=CCCCN1CC[C@]2(C)c3cc(O)ccc3C[C@@H]1[C@@H]2CC (racemic)
- Activity (Rhesus monkey [23]): Toxic
- inhibition (Rattus norvegicus [3]): inactive
- Activity (Rhesus monkey [24]): Toxic
- Activity (Rhesus monkey [25]): Toxic
- Activity (Rhesus monkey [26]): Toxic
- Activity (Mus musculus [27]): inactive
- ED50 (Mus musculus [10]): 2.56 mg/kg
- AD50 (Rattus norvegicus [12]): 1.18 mg/kg
- Activity (Mus musculus [28]): inactive

SMILES: CC[C@H]1[C@H]2Cc3ccc(O)cc3[C@@]1(C)CCN2CC=C(C)C (racemic)
- ED50 (Rattus norvegicus [7]): inactive
- ED50 (Mus musculus [29]): 26.8 mg/kg
- AD50 (Rattus norvegicus [12]): 3.1 mg/kg
- ED50 (Mus musculus [6]): 8.9 mg/kg
- Activity (Mus musculus [16]): 36%

SMILES: CC[C@H]1[C@H]2Cc3ccc(O)cc3[C@@]1(C)CCN2CC1CC1 (racemic)
- Activity (Rhesus monkey [1]): Active
- Activity (Mus musculus [30]): Toxic
- Activity (Rattus norvegicus [31]; route subcutaneous): 12%
- ED50 (Mus musculus [10]): 2.1 mg/kg
- Activity (Mus musculus [32]): inactive
- AD50 (Rattus norvegicus [12]): 0.19 mg/kg
- Activity (Rhesus monkey [2]): Active
- ED50 (Mus musculus [6]): inactive

SMILES: CC[C@H]1[C@H]2Cc3ccc(O)cc3[C@@]1(C)CCN2CC1CCC1 (racemic)
- Activity (Rhesus monkey [33]): Non-toxic
- Activity (Rhesus monkey [25]): Toxic
- Activity (Rattus norvegicus [31]): inactive
- Activity (Rhesus monkey [34]): Toxic
- ED50 (Mus musculus [10]): 0.31 mg/kg
- ED50 (Mus musculus [29]): 2.9 mg/kg
- AD50 (Rattus norvegicus [12]): 0.477 mg/kg
- ED50 (Mus musculus [6]): 1.8 mg/kg

SMILES: CN1CC[C@]23c4c5ccc(O)c4O[C@H]2[C@@H](O)C=C[C@H]3[C@H]1C5 [MORPHINE]
- ED50 (Rattus norvegicus [7]): 5.34 mg/kg
- ED50 (Mus musculus [29]): 0.8 mg/kg
- AD50 (Rattus norvegicus [12]): inactive
- ED50 (Mus musculus [6]): 1.2 mg/kg

SMILES: C=CCN1CC[C@]23c4c5ccc(O)c4O[C@H]2[C@@H](O)C=C[C@H]3[C@H]1C5 [NALORPHINE]
- Activity (Rattus norvegicus [8]): inactive
- Activity (Rhesus monkey [1]): Active
- ED50 (Mus musculus [29]): 4.8 mg/kg
- Activity (Rhesus monkey [2]): Active
- ED50 (Mus musculus [6]): 36.3 mg/kg
